Experimental data: patent publication US20090124624A1, “SUBSTITUTED 1-AMINOPHTHALAZINE DERIVATIVES, PREPARATION THEREOF AND THERAPEUTIC APPLICATION THEREOF” (SANOFI-AVENTIS, priority 2005, published 2009)
Where a name gives a salt, the structure may show the parent alone.

Assays:
MCH1 receptor [1] = target: T1, MCH1 receptor (Mus musculus, UniProt Q8JZL2); test: Displacement of [125I]-Tyr-S36057 binding to MCH1 receptors, mouse brain membrane preparations; conditions: in mice, brain membranes, read-out: IC50 (concentration that inhibits 50% of the specific binding)
T1 construct: from tissue; host or cells: mouse brain membranes
T1 sequence (Q8JZL2 whole entry): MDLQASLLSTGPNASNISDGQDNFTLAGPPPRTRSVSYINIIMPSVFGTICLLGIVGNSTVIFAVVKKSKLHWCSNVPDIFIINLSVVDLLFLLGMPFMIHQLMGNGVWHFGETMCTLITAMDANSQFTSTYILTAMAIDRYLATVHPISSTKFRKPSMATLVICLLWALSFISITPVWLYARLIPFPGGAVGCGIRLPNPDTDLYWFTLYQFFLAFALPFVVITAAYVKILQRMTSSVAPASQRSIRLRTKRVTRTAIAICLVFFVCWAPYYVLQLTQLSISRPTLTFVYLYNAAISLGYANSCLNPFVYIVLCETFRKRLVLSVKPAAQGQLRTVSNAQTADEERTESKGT
Protocol: (§1) The measurement of the affinity of the compounds of the invention for the MCH receptors was performed by studying the displacement of the binding of a radiolabelled derivative of MCH to the MCH1 receptors. This study was performed on rat and/or mouse brain membrane preparations according to the protocol described below.
(§2) In anticipation of the binding studies, the brains are diluted in HEPES buffer 25 mM (pH: 7.4) containing MgCl2 5 mM, CaCl2 1 mM, homogenized using a Polytron blender for 3 times 20 seconds (speed 25), and are then ultracentrifuged at 22000 rpm and at +4° C. for 30 minutes. The centrifugation pellet is taken up in the same buffer and the membranes are divided into aliquots and stored frozen at −80° C. until the time of use. The membranes are warmed to room temperature and then incubated in the presence of the test compounds, and of […] of an MCH-based radiolabelled molecule, [^125I]-Tyr-S36057 (8-amino-3,6-dioxyoctanoyl MCH 6-17 sold by Perkin-Elmer), in HEPES buffer 25 mM (pH: 7.4) containing MgCl2 5 mM, CaCl2 1 mM, bacitracin 140 mg/L, phenanthroline 1 mM and 0.2% bovine serum albumin. […] The radioactivity retained on the filters is measured using a Gamma scintillation counter. The non-specific binding is determined in the presence of 1 μM of non-radiolabelled S36057. […]

MCH1 receptor [2] = target: T2, MCH1 receptor (Rattus norvegicus, UniProt P97639); test: Displacement of [125I]-Tyr-S36057 binding to MCH1 receptors, rat brain membrane preparations; conditions: in rats, brain membranes, read-out: IC50 (concentration that inhibits 50% of the specific binding)
T2 construct: from tissue; host or cells: rat brain membranes
T2 sequence (P97639 whole entry): as the sequence (Q8JZL2 whole entry) above, with A5T, F24L, A27P, P29S, R34G, A138T counted along it
Protocol: as §1, §2

Row | SMILES | IC50 (MCH1 receptor [1]) [nM] | IC50 (MCH1 receptor [2]) [nM]
1 | COc1ccc(-c2nnc(NC3CCN(Cc4ccc(OCCCN(C)C)cc4)CC3)c3cc(OC)ccc23)cc1 [Example 3, N-(1-[{4-[3-(Dimethylamino)propoxy]benzyl}piperidin-4-yl)-7-methoxy-4-(4-methoxy-phenyl)phthalazin-1-aminetrihydrochloride] | 38 | 52
2 | COc1ccc2c(C3CCN(Cc4ccccc4)CC3)nnc(NC3CCN(Cc4ccc5c(c4)OCO5)CC3)c2c1 [Example 1, N-[1-(1,3-Benzodioxol-5-ylmethyl)piperidin-4-yl]-4-(1-benzylpiperidin-4-yl)-7-methoxyphthalazin-1-amine Trihydrochloride] | 0.2 | 0.5
